{"source": "patent US20240083890A1", "about": "“MACROCYCLIC BRANCHED 3-FLUORO-BUT-3-ENAMIDES AS INHIBITORS OF MCL-1” (JANSSEN PHARMACEUTICA NV, priority 2020, published 2024)", "key": {"Mcl-1": {"molecular_target": "Mcl-1 (Homo sapiens (Human), UniProt Q07820)", "sequence (Q07820 whole entry)": "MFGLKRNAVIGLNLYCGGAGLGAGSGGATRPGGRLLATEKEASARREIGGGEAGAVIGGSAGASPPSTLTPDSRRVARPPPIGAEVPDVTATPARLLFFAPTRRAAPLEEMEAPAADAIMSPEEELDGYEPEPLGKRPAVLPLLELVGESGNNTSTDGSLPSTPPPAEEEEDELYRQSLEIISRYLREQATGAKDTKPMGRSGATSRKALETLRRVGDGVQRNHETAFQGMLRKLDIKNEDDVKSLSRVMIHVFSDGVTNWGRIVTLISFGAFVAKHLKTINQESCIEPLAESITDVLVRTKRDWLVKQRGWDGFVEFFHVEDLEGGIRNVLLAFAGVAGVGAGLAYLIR", "assay": "Terbium labeled Mcl-1 HTRF binding assay, displacement of Cy5-labeled BIM BH3 peptide", "conditions": "Ki=IC50/(1+[L]/Kd), [L]=8 nM, Kd=10 nM; 25 pM Tb-Mcl-1, 8 nM Cy5 Bim peptide, 60 min; read-out: Tb-MCL1 Ki", "procedure": "Terbium labeled Myeloid Cell Leukemia 1(Mcl-1) homogeneous time-resolved fluorescence (HTRF) binding assay utilizing the BIM BH3 peptide (H2N—(C/Cy5Mal) WIAQELRRIGDEFN-OH) as the binding partner for Mcl-1.\nThis assay evaluated inhibition of the BH3 domain: Mcl-1 interaction by measuring the displacement of Cy5-labeled BIM BH3 peptide (H2N—(C/Cy5Mal) WIAQELRRIGDEFN-OH) in the HTRF assay format.\nThe following assay and stock buffers were prepared for use in the assay: (a) Stock buffer: 10 mM Tris-HCl, pH=7.5+150 mM NaCl, filtered, sterilized, and stored at 4° C.; and (b) 1× assay buffer, where the following ingredients were added fresh to stock buffer: 2 mM dithiothreitol (DTT), 0.0025% Tween-20, 0.1 mg/mL bovine serum albumin (BSA). The 1× Tb-Mcl-1+Cy5 Bim peptide solution was prepared by diluting the protein stock solution using the 1× assay buffer (b) to 25 pM Tb-Mcl-1 and 8 nM Cy5 Bim peptide.\nUsing the Acoustic ECHO, 100 nL of 100× test compound(s) were dispensed into individual wells of a white 384-well Perkin Elmer Proxiplate, for a final compound concentration of 1× and final DMSO concentration of 1%. Inhibitor control and neutral control (NC, 100 nL of 100% DMSO) were stamped into columns 23 and 24 of assay plate. Into each well of the plate was then dispensed 10 μL of the 1× Tb-Mcl-1+Cy5 Bim peptide solution. The plate was centrifuged with a cover plate at 1000 rpm for 1 minute, then incubated for 60 minutes at room temperature with plates covered.\nThe TR-FRET signal was read on an BMG PHERAStar FSX MicroPlate Reader at room temperature using the HTRF optic module (HTRF: excitation: 337 nm, light source: laser, emission A: 665 nm, emission B: 620 nm, integration start: 60 μs, integration time: […]).\nThe BMG PHERAStar FSX MicroPlate Reader was used to measure fluorescence intensity at two emission wavelengths—665 nm and 620 nm—and report relative fluorescence units (RFU) for both emissions, as well as a ratio of the emissions (665 nm/620 nm)*10,000. The RFU values were normalized to percent inhibition as follows:\n% inhibition (((NC−IC)−(compound-IC))/(NC−IC))*100\nwhere IC (inhibitor control, low signal)=mean signal of 1× Tb-MCl-1+Cy5 Bim peptide+inhibitor control or 100% inhibition of Mel-1; NC (neutral control, high signal)=mean signal 1× Tb-MCI-1+Cy5 Bim peptide with DMSO only or 0% inhibition\nAn 11-point dose response curve was generated to determine IC50 values (using GenData) based on the following equation:\nY=Bottom+(Top-Bottom)/(1+10^((log IC50−X)*HillSlope))\nwhere Y=% inhibition in the presence of X inhibitor concentration; Top=100% inhibition derived from the IC (mean signal of Mcl-1+inhibitor control); Bottom=0% inhibition derived from the NC (mean signal of Mcl-1+DMSO); Hillslope=Hill coefficient; and IC50=concentration of compound with 50% inhibition in relation to top/neutral control (NC).\nIn this assay [L]=8 nM and Kd=10 nM\nRepresentative compounds of the present invention were tested according to the procedure as described above, with results as listed in the Table below (n.d. means not determined)."}, "[1]": {"system": "MOLP-8 human multiple myeloma cell line", "assay": "Caspase-Glo 3/7 apoptosis induction assay in MOLP-8 cells", "type": "cell-based", "conditions": "Homo sapiens, MOLP-8; caspase-3/7 activation, 2 hours incubation at 37° C.; averaged over all runs on all batches; read-out: MOLP8 AC50", "source_text": "MCL-1 is a regulator of apoptosis and is highly over-expressed in tumor cells that escape cell death. The assay evaluates the cellular potency of small-molecule compounds targeting regulators of the apoptosis pathway, primarily MCL-1, Bfl-1, Bcl-2, and other proteins of the Bcl-2 family. Protein-protein inhibitors disrupting the interaction of anti-apoptotic regulators with BH3-domain proteins initiate apoptosis.\nThe Caspase-Glo® 3/7 Assay is a luminescent assay that measures caspase-3 and -7 activities in purified enzyme preparations or cultures of adherent or suspension cells. The assay provides a proluminescent caspase-3/7 substrate, which contains the tetrapeptide sequence DEVD. This substrate is cleaved to release aminoluciferin, a substrate of luciferase used in the production of light. Addition of the single Caspase-Glo® 3/7 Reagent in an “add-mix-measure” format results in cell lysis, followed by caspase cleavage of the substrate and generation of a “glow-type” luminescent signal.\nThis assay uses the MOLP-8 human multiple myeloma cell line, which is sensitive to MCL-1 inhibition.\nCell cultures were maintained between 0.2 and 2.0×10^6 cells/mL. The cells were harvested by collection in 50 mL conical tubes. The cells were then pelleted at 500 g for 5 mins before removing supernatant and resuspension in fresh pre-warmed culture medium. The cells were counted and diluted as needed.\nThe assay reagent was prepared by transferring the buffer solution to the substrate vial and mixing. The solution may be stored for up to 1 week at 4° C. with negligible loss of signal.\nCompounds were delivered in assay-ready plates (Proxiplate) and stored at −20° C.\nAssays always include 1 reference compound plate containing reference compounds. The plates were spotted with 40 nL of compounds (0.5% DMSO final in cells; serial dilution; 30 μM highest conc. 1/3 dilution, 10 doses, duplicates). The compounds were used at room temperature and 4 μL of pre-warmed media was added to all wells except column 2 and 23. The negative control was prepared by adding 1% DMSO in media. The positive control was prepared by adding the appropriate positive control compound in final concentration of 60 μM in media. The plate was prepared by adding 4 μL negative control to column 23, 4 μL positive control to column 2, and 4 μL cell suspension to all wells in the plate. The plate with cells was then incubated at 37° C. for 2 hours. The assay signal reagent is the Caspase-Glo solution described above, and 8 μL was added to all wells. The plates were then sealed and measured after 30 minutes.\nThe activity of a test compound was calculated as percent change in apoptosis induction as follows: • LC=median of the Low Control values • =Central Reference in Screener • =DMSO • =0% • HC=Median of the High Control values • =Scale Reference in Screener • =30 μM of positive control • =100% apoptosis induction\n% Effect (AC50)=100−((sample-LC)/(HC-LC))*100\n% Control=(sample/HC)*100\n% Control min=((sample-LC)/(HC-LC))*100\nTable: Measured AC50 for Representative Compounds of Formula (I). Averaged values are reported over all runs on all batches of a particular compound."}}, "data": [{"smiles": "COCC(COC)OC[C@H](O)[C@H]1/C(F)=C/C[C@H](C)[C@@H](C)S(=O)(=O)NC(=O)c2ccc3c(c2)N(C[C@@H]2CCN21)C[C@@]1(CCCc2cc(Cl)ccc21)CO3", "note": "[Compound 24]", "values": [{"measurement": "Ki", "setting": "Mcl-1", "value": 0.036, "unit": "nM"}, {"measurement": "AC50", "setting": "[1]", "value": 46.3, "unit": "nM"}]}, {"smiles": "COCCN(CC1CCOCC1)C[C@H](O)[C@H]1/C(F)=C/C[C@H](C)[C@@H](C)S(=O)(=O)NC(=O)c2ccc3c(c2)N(C[C@@H]2CCN21)C[C@@]1(CCCc2cc(Cl)ccc21)CO3", "note": "[Compound 25]", "values": [{"measurement": "Ki", "setting": "Mcl-1", "value": 0.025, "unit": "nM"}, {"measurement": "AC50", "setting": "[1]", "value": 36.6, "unit": "nM"}]}, {"smiles": "COCCCN(CCOC)C[C@H](O)[C@H]1/C(F)=C/C[C@H](C)[C@@H](C)S(=O)(=O)NC(=O)c2ccc3c(c2)N(C[C@@H]2CCN21)C[C@@]1(CCCc2cc(Cl)ccc21)CO3", "note": "[Compound 26]", "values": [{"measurement": "Ki", "setting": "Mcl-1", "value": 0.044, "unit": "nM"}, {"measurement": "AC50", "setting": "[1]", "value": 123, "unit": "nM"}]}, {"smiles": "C[C@@H]1[C@@H](C)C/C=C(\\F)[C@H]([C@@H](O)CN(C)CCC2CCOCC2)N2CC[C@H]2CN2C[C@@]3(CCCc4cc(Cl)ccc43)COc3ccc(cc32)C(=O)NS1(=O)=O", "note": "[Compound 27]", "values": [{"measurement": "Ki", "setting": "Mcl-1", "value": 0.053, "unit": "nM"}, {"measurement": "AC50", "setting": "[1]", "value": 746, "unit": "nM"}]}, {"smiles": "C[C@@H]1[C@@H](C)C/C=C(\\F)[C@H]([C@@H](O)CN(C)CC2CCOCC2)N2CC[C@H]2CN2C[C@@]3(CCCc4cc(Cl)ccc43)COc3ccc(cc32)C(=O)NS1(=O)=O", "note": "[Compound 28]", "values": [{"measurement": "Ki", "setting": "Mcl-1", "value": 0.037, "unit": "nM"}, {"measurement": "AC50", "setting": "[1]", "value": 211, "unit": "nM"}]}, {"smiles": "COCCN(C)C[C@H](O)[C@H]1/C(F)=C/C[C@H](C)[C@@H](C)S(=O)(=O)NC(=O)c2ccc3c(c2)N(C[C@@H]2CCN21)C[C@@]1(CCCc2cc(Cl)ccc21)CO3", "note": "[Compound 29]", "values": [{"measurement": "Ki", "setting": "Mcl-1", "value": 0.044, "unit": "nM"}, {"measurement": "AC50", "setting": "[1]", "value": 385, "unit": "nM"}]}, {"smiles": "COCCOCCN(C)C[C@H](O)[C@H]1/C(F)=C/C[C@H](C)[C@@H](C)S(=O)(=O)NC(=O)c2ccc3c(c2)N(C[C@@H]2CCN21)C[C@@]1(CCCc2cc(Cl)ccc21)CO3", "note": "[Compound 30]", "values": [{"measurement": "Ki", "setting": "Mcl-1", "value": 0.036, "unit": "nM"}, {"measurement": "AC50", "setting": "[1]", "value": 944, "unit": "nM"}]}, {"smiles": "C[C@@H]1[C@@H](C)C/C=C(\\F)[C@H]([C@@H](O)CN(C)C)N2CC[C@H]2CN2C[C@@]3(CCCc4cc(Cl)ccc43)COc3ccc(cc32)C(=O)NS1(=O)=O", "note": "[Compound 31]", "values": [{"measurement": "Ki", "setting": "Mcl-1", "value": 0.041, "unit": "nM"}, {"measurement": "AC50", "setting": "[1]", "value": 1020, "unit": "nM"}]}, {"smiles": "CO[C@H](C)[C@H]1/C(F)=C/C[C@H](C)[C@@H](C)S(=O)(=O)NC(=O)c2ccc3c(c2)N(C[C@@H]2CCCN21)C[C@@]1(CCOc2cc(Cl)ccc21)CO3", "note": "[Compound 32]", "values": [{"measurement": "Ki", "setting": "Mcl-1", "value": 1.93, "unit": "nM"}, {"measurement": "AC50", "setting": "[1]", "value": 3710, "unit": "nM"}]}]}
